Results reported in BindingDB's records for doi:10.3109/14756366.2012.681650 (East China University of Science and Technology, 2013).
Where “and” joins values, the source holds several entries; their conditions need not be identical. Identical values can stand only once.

Target: T1, Interstitial collagenase [100-268] (Homo sapiens, UniProt P03956)
T1 construct: 100-268
T1 sequence (P03956 whole entry): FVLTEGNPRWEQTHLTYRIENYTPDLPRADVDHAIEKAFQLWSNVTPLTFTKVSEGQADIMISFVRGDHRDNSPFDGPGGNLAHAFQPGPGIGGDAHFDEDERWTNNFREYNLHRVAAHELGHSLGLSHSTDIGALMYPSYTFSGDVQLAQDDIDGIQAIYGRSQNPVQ
Test: cd-MMP-1 Activity Assay
Settings: pH 7.5
Protocol: The activity of cd-MMP-1 was measured using a fluorescence-based assay. It was performed in white 96-well half area microplate (Greiner) in a final volume of 100 μL. […] The reaction was initiated by the addition of 50 μl of quenched fluorogenic peptide substrate: Dnp-Pro-beta-cyclohexyl-Ala-Gly-Cys(Me)-His-Ala-Lys(Nma)-NH2 (final concentration 5 μM). The cd-MMP-1 activity was determined in an Synergy™ 2 Multi-Mode Microplate Reader(BioTek) at an excitation wavelength of 360 nm and an emission wavelength of 460 nm.

| Structure (SMILES) | IC50 |
| --- | --- |
| CNC(=O)C(CCc1ccccc1)NC(=O)C(CC(=O)NO)CC(C)C (stereo unspecified) | 10 nM |
| O=c1c(O)c(-c2ccc(O)cc2)oc2cc(O)cc(O)c12 | 1350 nM and 3920 nM |
| O=c1c(O)c(-c2ccc(O)cc2O)oc2cc(O)cc(O)c12 [2-(2,4-dihydroxyphenyl)-3,5,7-trihydroxychromen-4-one] | 4850 nM |
| O=c1cc(-c2ccc(O)c(O)c2)oc2cc(O)cc(O)c12 [2-(3,4-dihydroxyphenyl)-5,7-dihydroxy-4H-chromen-4-one] | 3030 nM |
| O=c1c(O)c(-c2cc(O)c(O)c(O)c2)oc2cc(O)cc(O)c12 | 2920 nM |
| COc1ccc(S(=O)(=O)N2CC(C)(C)CN(S(=O)(=O)c3ccc(OC)cc3)C2C(=O)NO)cc1 [1,3-BIS-(4-METHOXY-BENZENESULFONYL)-5,5-DIMETHYL-HEXAHYDRO-PYRIMIDINE-2-CARBOXYLIC ACID HYDROXYAMIDE] | 13 nM |
